Like-named read-outs stand apart in the source and are kept apart here.
Assays:
[1] = system: ec302 (TEM-10); assay: Tigemonam potentiation (MPC@4), ec302; type: cell-based
[2] = biological target: OXA-48 (Klebsiella pneumoniae, UniProt Q6XEC0); assay: Ki, nitrocefin cleavage by purified enzyme, OXA-48; type: biochemical; conditions: nitrocefin reporter substrate; read-out: Ki (OXA-48, NCF)
Procedure, shortened: (§1)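 10 min RT preincubation, enzyme with inhibitor series in reaction buffer. Substrate nitrocefin; kinetic read 490 nm, 10 sec intervals, 10 min total.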

[3] = system: KP1010 (SHV-12); assay: Tigemonam potentiation (MPC@4), KP1010; type: cell-based
[4] = biological target: P99 (Enterobacter cloacae, UniProt P05364); assay: Ki, nitrocefin cleavage by purified enzyme, P99; type: biochemical; conditions: nitrocefin reporter substrate; read-out: Ki (P99, NCF)
Procedure, shortened: as §1

[5] = system: KP1086 (OXA-48); assay: Biapenem potentiation (MPC@1), KP1086; conditions: BLI with biapenem at 1 μg/mL
[6] = biological target: KPC-2 (Klebsiella pneumoniae, UniProt Q9F663); assay: Ki, nitrocefin cleavage by purified enzyme, KPC-2; type: biochemical; conditions: nitrocefin reporter substrate; read-out: Ki (KPC-2, NCF)
Procedure, shortened: as §1

[7] = system: KP1004 (KPC-2); assay: Biapenem potentiation (MPC@1), KP1004; conditions: BLI with biapenem at 1 μg/mL
[8] = system: KP1005 (CTX-M-14); assay: Tigemonam potentiation (MPC@4), KP1005; type: cell-based; conditions: BLI with tigemonam at 4 μg/mL
[9] = Intravenous pharmacokinetics; type: in vivo; conditions: rat, plasma; rats, 20 mg/kg, intravenous infusion over 0.5 hours; read-out: Free Cl (converted)
Method: Rats (n=3 per compound) were administered by a single infusion. Intravenous doses were infused over 0.5 hours via an indwelling femoral vein cannula. […] (˜0.3 mL) samples were collected from each rat at designated time points up to 24 hours. Blood samples were centrifuged within 5 min of collection at 12000 g for 5 min to obtain plasma. The plasma samples were stored at −80° C. until analyzed. Data were analyzed using WinNonlin. The doses of all compounds tested were 20 mg/kg.

[10] = system: ECL1002; assay: Tigemonam potentiation (MPC@4), ECL1002; type: cell-based; conditions: BLI with tigemonam at 4 μg/mL
[11] = system: ECL1002; assay: Aztreonam potentiation (MPC@4), ECL1002; type: cell-based; conditions: BLI with aztreonam at 4 μg/mL
[12] = system: ec302 (TEM-10); assay: Aztreonam potentiation (MPC@4), ec302; type: cell-based; conditions: BLI with aztreonam at 4 μg/mL
[13] = system: EC1010 (CMY-6); assay: Tigemonam potentiation (MPC@4), EC1010; type: cell-based; conditions: BLI with tigemonam at 4 μg/mL
[14] = biological target: CTX-M-14 (Escherichia coli, UniProt Q9L5C7); assay: Ki, nitrocefin cleavage by purified enzyme, CTX-M-14; type: biochemical; conditions: nitrocefin reporter substrate; read-out: Ki (CTX-M-14, NCF)
Procedure, shortened: as §1

[15] = system: KP1009 (CTX-M-15); assay: Tigemonam potentiation (MPC@4), KP1009; type: cell-based; conditions: BLI with tigemonam at 4 μg/mL
[16] = biological target: SHV-12 (Klebsiella pneumoniae, UniProt P0AD64, E235K/G234S/L31Q); assay: Ki, nitrocefin cleavage by purified enzyme, SHV-12; type: biochemical; conditions: nitrocefin reporter substrate; read-out: Ki (SHV-12, NCF)
Procedure, shortened: as §1

[17] = Monomer content of pH adjusted aqueous solutions (LC-UV); type: physicochemical; conditions: pH adjusted to 7.6 to 8, LC-UV; for % Monomer in 1 mg/mL salt solution: 1 mg/mL aqueous salt solution; for % Monomer in 10 mg/mL salt solution: 10 mg/mL aqueous salt solution; for % Monomer in 100 mg/mL salt solution: 100 mg/mL aqueous salt solution
Procedure, shortened: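 Aqueous solutions at 1.00, 10.0 or 100 mg/mL (active fraction) brought to pH 7.6–8 with acid or base, compound fully dissolved. Injected within half an hour of preparation onto C18 reversed-phase LC (0.1% TFA water / 0.085% TFA methanol gradient); UV detection at 220, 254 and 300 nm.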

[18] = system: ec308 (SHV-5); assay: Tigemonam potentiation (MPC@4), ec308; type: cell-based
[19] = system: EC1010 (CMY-6); assay: organism not typed; type: cell-based
[20] = biological target: Pa AmpC (Pseudomonas aeruginosa, UniProt P24735); assay: Ki, nitrocefin cleavage by purified enzyme, Pa AmpC; type: biochemical; conditions: nitrocefin reporter substrate; read-out: Ki (Pa AmpC, NCF)
Procedure, shortened: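 Nitrocefin hydrolysis by purified β-lactamase is followed at 490 nm every 10 sec for 10 min. Before substrate is added, enzyme sits with varying inhibitor concentrations for 10 min at room temperature. Ki comes from these cleavage profiles.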

[21] = system: KP1004 (KPC-2); assay: Aztreonam potentiation (MPC@4), KP1004; type: cell-based; conditions: BLI with aztreonam at 4 μg/mL

KPC-2, sequence (Q9F663 25-293, looked up, species assumed): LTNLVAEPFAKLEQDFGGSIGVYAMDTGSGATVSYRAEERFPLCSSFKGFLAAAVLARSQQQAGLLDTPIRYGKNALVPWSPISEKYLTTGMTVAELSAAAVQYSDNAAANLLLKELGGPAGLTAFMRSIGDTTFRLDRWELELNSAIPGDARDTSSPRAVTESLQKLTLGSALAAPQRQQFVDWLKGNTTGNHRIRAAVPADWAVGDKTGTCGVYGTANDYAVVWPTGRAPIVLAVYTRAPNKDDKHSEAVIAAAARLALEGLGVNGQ
P99, sequence (P05364 21-381): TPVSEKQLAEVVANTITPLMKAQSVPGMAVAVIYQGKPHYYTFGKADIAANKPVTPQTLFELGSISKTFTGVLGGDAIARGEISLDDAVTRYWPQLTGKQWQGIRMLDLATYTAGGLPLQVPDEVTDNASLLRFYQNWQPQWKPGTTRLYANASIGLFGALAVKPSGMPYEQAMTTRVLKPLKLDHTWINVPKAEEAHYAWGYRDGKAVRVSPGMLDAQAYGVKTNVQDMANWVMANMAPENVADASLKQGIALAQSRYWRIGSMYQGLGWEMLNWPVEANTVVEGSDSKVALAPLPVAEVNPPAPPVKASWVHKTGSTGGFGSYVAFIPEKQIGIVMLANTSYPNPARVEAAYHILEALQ
CTX-M-14, sequence (Q9L5C7 29-291): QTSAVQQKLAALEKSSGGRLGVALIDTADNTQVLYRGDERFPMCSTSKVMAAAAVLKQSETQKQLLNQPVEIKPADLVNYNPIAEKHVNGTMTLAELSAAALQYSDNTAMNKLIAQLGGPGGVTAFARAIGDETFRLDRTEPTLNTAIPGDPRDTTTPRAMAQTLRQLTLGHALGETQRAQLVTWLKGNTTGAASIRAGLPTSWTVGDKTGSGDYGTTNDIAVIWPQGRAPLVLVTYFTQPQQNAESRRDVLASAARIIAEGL
OXA-48, sequence (Q6XEC0 23-265, looked up, species assumed): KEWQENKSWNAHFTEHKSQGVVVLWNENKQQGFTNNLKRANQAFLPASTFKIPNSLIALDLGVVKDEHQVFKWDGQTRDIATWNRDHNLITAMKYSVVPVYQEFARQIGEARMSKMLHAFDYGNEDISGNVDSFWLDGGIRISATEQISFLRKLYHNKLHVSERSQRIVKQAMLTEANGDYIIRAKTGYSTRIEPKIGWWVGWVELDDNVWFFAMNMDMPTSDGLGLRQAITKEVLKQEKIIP
Pa AmpC, sequence (P24735 27-397): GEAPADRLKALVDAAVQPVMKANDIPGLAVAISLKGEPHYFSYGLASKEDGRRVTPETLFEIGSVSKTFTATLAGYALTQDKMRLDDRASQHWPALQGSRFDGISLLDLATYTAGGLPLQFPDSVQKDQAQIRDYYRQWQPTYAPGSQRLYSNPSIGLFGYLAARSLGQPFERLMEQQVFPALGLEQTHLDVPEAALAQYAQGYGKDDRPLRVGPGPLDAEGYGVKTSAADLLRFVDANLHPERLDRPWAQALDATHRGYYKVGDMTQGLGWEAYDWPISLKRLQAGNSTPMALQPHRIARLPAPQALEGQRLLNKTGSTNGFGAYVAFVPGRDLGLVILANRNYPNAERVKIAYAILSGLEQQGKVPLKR
SHV-12, sequence (P0AD64 22-286 L31Q/G234S/E235K): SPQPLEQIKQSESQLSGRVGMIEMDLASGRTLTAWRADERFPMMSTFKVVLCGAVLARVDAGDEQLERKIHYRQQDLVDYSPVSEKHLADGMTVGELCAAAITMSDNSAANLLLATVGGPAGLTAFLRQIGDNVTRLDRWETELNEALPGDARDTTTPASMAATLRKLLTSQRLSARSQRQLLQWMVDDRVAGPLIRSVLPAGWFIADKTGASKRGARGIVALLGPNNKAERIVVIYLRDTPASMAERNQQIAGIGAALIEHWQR

SMILES	Ki [2]	Ki [4]	BPM MPC1 OXA-48 KP1086 [5]	Ki [6]	BPM MPC1 KP1004 KPC-2 [7]	TIG MPC4 CTX-M-14 KP1005 [8]	clearance [9]	TIG MPC4 ECL1002 [10]	AZT MPC4 ECL1002 [11]	AZT MPC4 TEM-10 ec302 [12]	TIG MPC4 CMY-6 EC1010 [13]	Ki [14]	TIG MPC4 CTX-M-15 KP1009 [15]	Ki [16]	% Monomer in 1 mg/mL salt solution [17]	% Monomer in 10 mg/mL salt solution [17]	% Monomer in 100 mg/mL salt solution [17]	TIG MPC4 TEM-10 ec302 [1]	TIG MPC4 SHV-12 KP1010 [3]	Ki [20]	other results
CSCC(=O)N[C@H]1Cc2ccc(F)c(C(=O)O)c2OB1O [Compound 1, (R)-7-fluoro-2-hydroxy-3-(2-(methylthio)acetamido)-3,4-dihydro-2H-benzo[e][1,2]oxaborinine-8-carboxylic acid]	> 10 nM	> 10 nM	Y (MIC of 1 μg/mL to 10 μg/mL)	> 10 nM	X (MIC of less than 1 μg/mL)	X (MIC of less than 1 μg/mL)	14.2 mL/min/kg	X (MIC of less than 1 μg/mL)	Y (MIC of 1 μg/mL to 10 μg/mL)	Y (MIC of 1 μg/mL to 10 μg/mL)	X (MIC of less than 1 μg/mL)	< 1 nM	X (MIC of less than 1 μg/mL)	< 1 nM	98.0%	97.5%	96.4%	–	–	–	TIG MPC4 TEM-10 ec302 ([1]; BLI with tigemonam at 4 μg/mL): Y (MIC of 1 μg/mL to 10 μg/mL); TIG MPC4 SHV-12 KP1010 ([3]; BLI with tigemonam at 4 μg/mL): X (MIC of less than 1 μg/mL); TIG MPC4 SHV-5 ec308 ([18]; BLI with tigemonam at 4 μg/mL): X (MIC of less than 1 μg/mL)
O=C(CSC1CNC1)N[C@H]1Cc2ccc(F)c(C(=O)O)c2OB1O [Compound 2, (R)-3-(2-(azetidin-3-ylthio)acetamido)-7-fluoro-2-hydroxy-3,4-dihydro-2H-benzo[e][1,2]oxaborinine-8-carboxylic acid]	> 10 nM	> 10 nM	Y (MIC of 1 μg/mL to 10 μg/mL)	> 10 nM	X (MIC of less than 1 μg/mL)	X (MIC of less than 1 μg/mL)	10.2 mL/min/kg	X (MIC of less than 1 μg/mL)	Y (MIC of 1 μg/mL to 10 μg/mL)	Y (MIC of 1 μg/mL to 10 μg/mL)	X (MIC of less than 1 μg/mL)	< 1 nM	X (MIC of less than 1 μg/mL)	< 1 nM	–	–	–	Y (key: X: MIC of less than 1 ng/mL; Y: MIC of 1 μg/mL to 10 μg/mL; Z: MIC of greater than 10 μg/mL)	X (key: X: MIC of less than 1 μg/mL; Y: MIC of 1 μg/mL to 10 μg/mL; Z: MIC of greater than 10 μg/mL)	> 10 nM	AZT MPC4 CMY-6 EC1010 [19]: Y (key: X: MIC of less than 1 ng/mL; Y: MIC of 1 μg/mL to 10 μg/mL; Z: MIC of greater than 10 μg/mL); TIG MPC4 SHV-5 ec308 [18]: X (key: X: MIC of less than 1 μg/mL; Y: MIC of 1 μg/mL to 10 μg/mL; Z: MIC of greater than 10 μg/mL)
COc1ccc2c(c1C(=O)O)OB(O)[C@@H](NC(=O)Cc1cccs1)C2 [Compound 29, (R)-2-hydroxy-7-methoxy-3-(2-(thiophen-2-yl)acetamido)-3,4-dihydro-2H-benzo[e][1,2]oxaborinine-8-carboxylic acid]	< 1 nM	1 to 10 nM	Y (MIC of 1 μg/mL to 10 μg/mL)	1 to 10 nM	X (MIC of less than 1 μg/mL)	X (MIC of less than 1 μg/mL)	11.2 mL/min/kg	X (MIC of less than 1 μg/mL)	–	X (MIC of less than 1 ng/mL)	X (MIC of less than 1 μg/mL)	< 1 nM	X (MIC of less than 1 μg/mL)	< 1 nM	99.4%	98.6%	67.0%	Y (key: X: MIC of less than 1 ng/mL; Y: MIC of 1 μg/mL to 10 μg/mL; Z: MIC of greater than 10 μg/mL)	X (key: X: MIC of less than 1 μg/mL; Y: MIC of 1 μg/mL to 10 μg/mL; Z: MIC of greater than 10 μg/mL)	1 to 10 nM	AZT MPC4 KPC-2 KP1004 [21]: Y (MIC of 1 μg/mL to 10 μg/mL); TIG MPC4 SHV-5 ec308 [18]: X (key: X: MIC of less than 1 μg/mL; Y: MIC of 1 μg/mL to 10 μg/mL; Z: MIC of greater than 10 μg/mL)
O=C(Cc1cccs1)N[C@H]1Cc2ccc(F)c(C(=O)O)c2OB1O [Compound 30, (R)-7-fluoro-2-hydroxy-3-(2-(thiophen-2-yl)acetamido)-3,4-dihydro-2H-benzo[e][1,2]oxaborinine-8-carboxylic acid]	< 1 nM	1 to 10 nM	Y (MIC of 1 μg/mL to 10 μg/mL)	1 to 10 nM	X (MIC of less than 1 μg/mL)	Y (MIC of 1 μg/mL to 10 μg/mL)	23 mL/min/kg	X (MIC of less than 1 μg/mL)	Y (MIC of 1 μg/mL to 10 μg/mL)	Y (MIC of 1 μg/mL to 10 μg/mL)	X (MIC of less than 1 μg/mL)	< 1 nM	X (MIC of less than 1 μg/mL)	< 1 nM	94.6%	93.5%	87.6%	Y (key: X: MIC of less than 1 ng/mL; Y: MIC of 1 μg/mL to 10 μg/mL; Z: MIC of greater than 10 μg/mL)	X (key: X: MIC of less than 1 μg/mL; Y: MIC of 1 μg/mL to 10 μg/mL; Z: MIC of greater than 10 μg/mL)	1 to 10 nM	AZT MPC4 CMY-6 EC1010 [19]: Y (key: X: MIC of less than 1 ng/mL; Y: MIC of 1 μg/mL to 10 μg/mL; Z: MIC of greater than 10 μg/mL); TIG MPC4 SHV-5 ec308 [18]: X (key: X: MIC of less than 1 μg/mL; Y: MIC of 1 μg/mL to 10 μg/mL; Z: MIC of greater than 10 μg/mL)

— patent US9963467B2, “Boronic acid derivatives and therapeutic uses thereof” (Rempex Pharmaceuticals, Inc., priority 2014, dated 2018)
